Like-named read-outs stand apart in the source and are kept apart here. Positions of bridges follow the written chain, without caps; N, C: chain ends. Non-standard residues stand in square brackets, D forms with d. Residues, ends and D or L forms follow the SMILES beside them. ξ: configuration not given here. Phe(3-CF3) = N[C@@H](Cc1cccc(C(F)(F)F)c1)C(=O)O; Phe(4-CH2NH2) = NCc1ccc(C[C@H](N)C(=O)O)cc1; Phe(4-F) = N[C@@H](Cc1ccc(F)cc1)C(=O)O; Bta = N[C@@H](Cc1csc2ccccc12)C(=O)O; Hyp = O=C(O)[C@@H]1C[C@@H](O)CN1; NMeF = CN[C@@H](Cc1ccccc1)C(=O)O; NMeE = CN[C@@H](CCC(=O)O)C(=O)O; NMeNle = CCCC[C@H](NC)C(=O)O; NMeM = CN[C@@H](CCSC)C(=O)O; NMeA = CN[C@@H](C)C(=O)O; Orn = NCCC[C@H](N)C(=O)O; Dap = NC[C@H](N)C(=O)O; ξC = NC(CS)C(=O)O; Sar = CNCC(=O)O
Assays:
Human PD-L1/PD-1 = biological target: T1, Human PD-L1/PD-1 (Homo sapiens, UniProt Q9NZQ7); experiment: HTRF PD-1-Ig/PD-L1-His binding assay (human PD-L1); conditions: cluster symbol; read-out: HTRF IC50 cluster
T1 construct: made in house; host or cells: HEK293T
Procedure, shortened: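 Steps: truncated PD-1-Ig and PD-L1-His fusions are incubated in dPBS containing 0.1% (w/v) BSA and 0.05% (v/v) Tween-20. Detection antibodies are then added (Eu cryptate anti-Ig at 1 nM final, APC anti-His at 20 nM final), and time-resolved FRET is measured.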

[1] = biological target: T2, LK35.2-hPD-L1 cells / PE-labeled PD-1-Ig (Homo sapiens, UniProt Q9NZQ7); experiment: LK35.2-hPD-L1 cell binding high-content screening assay; format: cell-based; conditions: cluster symbol, read-out: CBA IC50 cluster
T2 construct: expressed in transfected cells; host or cells: LK35.2 mouse B cell line
Procedure, shortened: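 Readout: high-content imaging of PE-PD-1-Ig bound to LK35.2-hPD-L1 cells. Cells plated overnight (RPMI/10% FCS); compound + 1 nM PE-PD-1-Ig, 1 h, 37 °C; 3× dPBS wash before imaging.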

[2] = cell binding assay, cell line not given
[3] = cell line of CBA not given (LK35.2-hPD-L1 or 293T-hPD-L1)

T1 sequence (Q9NZQ7 with tags, fused parts or gaps): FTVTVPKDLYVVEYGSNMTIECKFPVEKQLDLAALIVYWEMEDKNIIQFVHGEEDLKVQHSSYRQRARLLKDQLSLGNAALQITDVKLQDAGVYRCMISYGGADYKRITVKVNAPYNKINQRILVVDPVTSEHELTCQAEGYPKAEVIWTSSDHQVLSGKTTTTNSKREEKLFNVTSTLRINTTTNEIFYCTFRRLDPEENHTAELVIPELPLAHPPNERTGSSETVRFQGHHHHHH
T2 sequence (Q9NZQ7 19-290): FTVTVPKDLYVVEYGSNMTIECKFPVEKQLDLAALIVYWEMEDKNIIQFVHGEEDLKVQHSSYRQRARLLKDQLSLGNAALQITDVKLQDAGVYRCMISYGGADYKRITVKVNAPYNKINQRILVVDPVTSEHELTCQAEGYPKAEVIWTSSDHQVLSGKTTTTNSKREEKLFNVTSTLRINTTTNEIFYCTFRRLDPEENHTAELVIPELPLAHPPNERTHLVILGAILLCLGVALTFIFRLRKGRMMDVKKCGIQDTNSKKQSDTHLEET

Row | SMILES | IC50 (Human PD-L1/PD-1) [nM] | IC50 [1, 2] [nM] | IC50 [1, 3] [nM]
1 | CCCC[C@H]1C(=O)N(C)CC(=O)N[C@@H](CC(=O)O)C(=O)N[C@@H](C(C)C)C(=O)N(C)[C@@H](Cc2ccccc2)C(=O)N[C@@H](Cc2ccc(O)cc2)C(=O)N(C)CC(=O)N[C@@H](Cc2c[nH]c3ccccc23)C(=O)N(C)[C@@H](Cc2ccc(O)cc2)C(=O)N[C@@H](CC(C)C)C(=O)N[C@H](C(=O)NCC(N)=O)CSCC(=O)N[C@@H](Cc2ccccc2)C(=O)N(C)[C@@H](Cc2ccccc2)C(=O)N1C [Example 3566] (HELM PEPTIDE1{[O=C(C[*:3])[*:2]].F.[meF].[CCCC[C@@H](C(=O)[*:2])N(C)[*:1]].[Sar].D.V.[meF].Y.[Sar].W.[meY].L.C.G.[am]}$PEPTIDE1,PEPTIDE1,1:R3-14:R3$$$V2.0) | > 30.5 | > 74.3 | 
2 | CCCC[C@H]1C(=O)N(C)CC(=O)N[C@@H](CC(=O)O)C(=O)N[C@@H](C(C)C)C(=O)N(C)[C@@H](Cc2ccccc2)C(=O)N[C@@H](Cc2ccc(O)cc2)C(=O)N(C)CC(=O)N[C@@H](Cc2c[nH]c3ccccc23)C(=O)N[C@@H](Cc2ccc(O)cc2)C(=O)N[C@@H](CC(C)C)C(=O)N[C@H](C(=O)NCC(N)=O)CSCC(=O)N[C@@H](CCSC)C(=O)N(C)[C@@H](Cc2ccccc2)C(=O)N1C [Example 3172] (HELM PEPTIDE1{[O=C(C[*:3])[*:2]].M.[meF].[CCCC[C@@H](C(=O)[*:2])N(C)[*:1]].[Sar].D.V.[meF].Y.[Sar].W.Y.L.C.G.[am]}$PEPTIDE1,PEPTIDE1,1:R3-14:R3$$$V2.0) | > 30.5 |  | > 74.3
3 | CCCC[C@H]1C(=O)N(C)[C@@H](CCCC)C(=O)N[C@@H](CCCNC(=N)N)C(=O)N[C@H](C(=O)NCC(N)=O)CSCC(=O)N[C@@H](Cc2cccc(C(F)(F)F)c2)C(=O)N(C)[C@@H](C)C(=O)N[C@@H](CC(N)=O)C(=O)N2CCC[C@H]2C(=O)N[C@@H](Cc2cnc[nH]2)C(=O)N[C@@H](CC(C)C)C(=O)N2C[C@H](O)C[C@H]2C(=O)N[C@@H](Cc2c[nH]c3ccccc23)C(=O)N[C@@H](CO)C(=O)N[C@@H](Cc2c[nH]c3ccccc23)C(=O)N1C [Example 7056] ({CH2CO}-[Phe(3-CF3)][NMeA]NPHL[Hyp]WSW[NMeNle][NMeNle]RCG-NH2; thioether N-14) | 6.76 to 30.3 | > 74.3 | 
4 | CC(C)C[C@@H]1NC(=O)[C@H](Cc2ccc(O)cc2)NC(=O)[C@H](Cc2c[nH]c3ccccc23)NC(=O)CN(C)C(=O)[C@H](Cc2ccc(O)cc2)NC(=O)[C@H](Cc2ccccc2)N(C)C(=O)[C@H](C(C)C)NC(=O)[C@H](CC(=O)O)NC(=O)CN(C)C(=O)[C@H](Cc2ccc(O)cc2)N(C)C(=O)[C@H](Cc2ccccc2)N(C)C(=O)[C@H](Cc2ccccc2)NC(=O)CSC[C@@H](C(=O)NCC(N)=O)NC1=O [Example 3060-B] (HELM PEPTIDE1{[O=C(C[*:3])[*:2]].F.[meF].[meY].[Sar].D.V.[meF].Y.[Sar].W.Y.L.C.G.[am]}$PEPTIDE1,PEPTIDE1,1:R3-14:R3$$$V2.0) | > 30.5 |  | > 74.3
5 | CCCC[C@H]1C(=O)N(C)[C@@H](CCCC)C(=O)N[C@@H](CCCNC(=N)N)C(=O)N[C@H](C(=O)NCC(N)=O)CSCC(=O)N[C@@H](Cc2ccc(O)cc2)C(=O)N(C)[C@@H](C)C(=O)N[C@@H](CC(N)=O)C(=O)N2CCC[C@H]2C(=O)N[C@@H](Cc2cnc[nH]2)C(=O)N[C@@H](CC(C)C)C(=O)N2C[C@H](O)C[C@H]2C(=O)N[C@@H](Cc2c[nH]c3ccccc23)C(=O)N[C@@H](CCCN)C(=O)N[C@@H](Cc2c[nH]c3ccccc23)C(=O)N1C [Example 1133] ({CH2CO}-Y[NMeA]NPHL[Hyp]W[Orn]W[NMeNle][NMeNle]RCG-NH2; thioether N-14) | 6.76 to 30.3 |  | 0.158 to 4.71
6 | CCCC[C@H]1C(=O)N(C)[C@@H](CCCC)C(=O)N[C@@H](CCCNC(=N)N)C(=O)N[C@H](C(=O)NCC(=O)NCC(N)=O)CSCC(=O)N[C@@H](Cc2ccccc2)C(=O)N(C)[C@@H](C)C(=O)N[C@@H](CC(N)=O)C(=O)N2CCC[C@H]2C(=O)N[C@@H](Cc2cnc[nH]2)C(=O)N[C@@H](CC(C)C)C(=O)N(C)CC(=O)N[C@@H](Cc2c[nH]c3ccccc23)C(=O)N[C@@H](CO)C(=O)N[C@@H](Cc2c[nH]c3ccccc23)C(=O)N1C [Example 6001] ({CH2CO}-F[NMeA]NPHL[Sar]WSW[NMeNle][NMeNle]RCGG-NH2; thioether N-14) | 6.76 to 30.3 | 4.78 to 72.9 | 
7 | CCCC[C@H]1C(=O)N(C)CC(=O)N[C@@H](CC(=O)O)C(=O)N[C@@H](C(C)C)C(=O)N(C)[C@@H](Cc2ccccc2)C(=O)N[C@@H](Cc2ccc(CN)cc2)C(=O)N(C)CC(=O)N[C@@H](Cc2csc3ccccc23)C(=O)N[C@@H](Cc2ccc(O)cc2)C(=O)N[C@@H](CC(C)C)C(=O)N[C@H](C(=O)NCC(N)=O)CSCC(=O)N[C@@H](Cc2ccc(F)cc2)C(=O)N(C)[C@@H](Cc2ccccc2)C(=O)N1C [Example 3120] ({CH2CO}-[Phe(4-F)][NMeF][NMeNle][Sar]DV[NMeF][Phe(4-CH2NH2)][Sar][Bta]YLCG-NH2; thioether N-13) | 6.76 to 30.3 |  | 0.158 to 4.71
8 | CC(C)C[C@@H]1NC(=O)[C@H](Cc2cnc[nH]2)NC(=O)[C@@H]2CCCN2C(=O)[C@H](CC(N)=O)NC(=O)[C@H](C)N(C)C(=O)[C@H](Cc2ccccc2)NC(=O)CSC[C@@H](C(=O)NCC(N)=O)NC(=O)[C@H](CCCNC(=N)N)NC(=O)[C@H](C)N(C)C(=O)[C@H](CCCc2ccccc2)NC(=O)[C@H](Cc2c[nH]c3ccccc23)NC(=O)[C@H](CO)NC(=O)[C@H](Cc2c[nH]c3ccccc23)NC(=O)CN(C)C1=O [Example 1108] (HELM PEPTIDE1{[O=C(C[*:3])[*:2]].F.[meA].N.P.H.L.[Sar].W.S.W.[O=C([C@H](CCCc1ccccc1)N[*:1])[*:2]].[meA].R.C.G.[am]}$PEPTIDE1,PEPTIDE1,1:R3-15:R3$$$V2.0) | > 30.5 |  | > 74.3

The next lines start with the values.

Row | IC50 (Human PD-L1/PD-1) [nM] | IC50 [1, 2] [nM] | IC50 [1, 3] [nM] | SMILES
9 | 6.76 to 30.3 | 4.78 to 72.9 |  | CCCC[C@H]1C(=O)N(C)[C@@H](COc2cccc(C)c2)C(=O)N[C@@H](CCCNC(=N)N)C(=O)N[C@H](C(=O)NCC(N)=O)CSCC(=O)N[C@@H](Cc2ccc(O)cc2)C(=O)N(C)[C@@H](C)C(=O)N[C@@H](CC(N)=O)C(=O)N2CCC[C@H]2C(=O)N[C@@H](CN)C(=O)N[C@@H](CC(C)C)C(=O)N2C[C@H](O)C[C@H]2C(=O)N[C@@H](Cc2c[nH]c3ccccc23)C(=O)N[C@@H](CO)C(=O)N[C@@H](Cc2csc3ccccc23)C(=O)N1C [Example 5005]
10 | 0.385 to 6.74 | 0.158 to 4.71 |  | CCCC[C@H]1C(=O)N(C)[C@@H](COCC)C(=O)N[C@@H](CCCNC(=N)N)C(=O)NC(C(=O)NCC(N)=O)CSCC(=O)N[C@@H](Cc2ccc(O)cc2)C(=O)N(C)[C@@H](C)C(=O)N[C@@H](CC(N)=O)C(=O)N2CCC[C@H]2C(=O)N[C@@H](Cc2cnc[nH]2)C(=O)N[C@@H](CC(C)C)C(=O)N2C[C@H](O)C[C@H]2C(=O)N[C@@H](Cc2c[nH]c3ccccc23)C(=O)N[C@@H](CO)C(=O)N[C@@H](Cc2c[nH]c3ccccc23)C(=O)N1C (stereo partly shown) [Example 9043]
11 | 6.76 to 30.3 | 4.78 to 72.9 |  | CCCC[C@H]1C(=O)N[C@H](CCC(=O)O)C(=O)N[C@@H](CC(=O)O)C(=O)N[C@@H](C(C)C)C(=O)N(C)[C@@H](Cc2ccccc2)C(=O)N[C@@H](Cc2ccc(O)cc2)C(=O)N(C)CC(=O)N[C@@H](Cc2c[nH]c3ccccc23)C(=O)N[C@@H](Cc2ccc(O)cc2)C(=O)N[C@@H](CC(C)C)C(=O)N[C@H](C(=O)NCC(N)=O)CSCC(=O)N[C@@H](Cc2ccccc2)C(=O)N(C)[C@@H](Cc2ccccc2)C(=O)N1C [Example 3527] (HELM PEPTIDE1{[O=C(C[*:3])[*:2]].F.[meF].[CCCC[C@@H](C(=O)[*:2])N(C)[*:1]].[dE].D.V.[meF].Y.[Sar].W.Y.L.C.G.[am]}$PEPTIDE1,PEPTIDE1,1:R3-14:R3$$$V2.0)
12 | 6.76 to 30.3 | 0.158 to 4.71 |  | CCCC[C@H]1C(=O)N(C)[C@@H](CCSC)C(=O)N[C@@H](CCCNC(=N)N)C(=O)NC(C(=O)NCC(N)=O)CSCC(=O)N[C@@H](Cc2ccc(O)cc2)C(=O)N(C)[C@@H](C)C(=O)N[C@@H](CC(N)=O)C(=O)N2CCC[C@H]2C(=O)N[C@@H](CN)C(=O)N[C@@H](CC(C)C)C(=O)N2C[C@H](O)C[C@H]2C(=O)N[C@@H](Cc2c[nH]c3ccccc23)C(=O)N[C@@H](CO)C(=O)N[C@@H](Cc2c[nH]c3ccccc23)C(=O)N1C (stereo partly shown) [Example 9083] ({CH2CO}-Y[NMeA]NP[Dap]L[Hyp]WSW[NMeNle][NMeM]R[ξC]G-NH2; thioether N-14)
13 | 0.385 to 6.74 | 4.78 to 72.9 |  | CCCC[C@H]1C(=O)N(C)[C@@H](COc2cccc(C)c2)C(=O)N[C@@H](CCN)C(=O)N[C@H](C(=O)NCC(N)=O)CSCC(=O)N[C@@H](Cc2ccc(O)cc2)C(=O)N(C)[C@@H](C)C(=O)N[C@@H](CC(=O)O)C(=O)N2CCC[C@H]2C(=O)N[C@@H](CN)C(=O)N[C@@H](CCC(=O)O)C(=O)N2C[C@H](O)C[C@H]2C(=O)N[C@@H](Cc2c[nH]c3ccccc23)C(=O)N[C@@H](CO)C(=O)N[C@@H](Cc2c[nH]c3ccccc23)C(=O)N1C [Example 6031]
14 | 0.385 to 6.74 |  | 4.78 to 72.9 | CCCC[C@H]1C(=O)N(C)CC(=O)N[C@@H](CC(=O)O)C(=O)N[C@@H](C(C)C)C(=O)N(C)[C@@H](Cc2ccccc2)C(=O)N[C@@H](Cc2ccc(O)cc2)C(=O)N(C)[C@@H](CCC(=O)O)C(=O)N[C@@H](Cc2csc3ccccc23)C(=O)N[C@@H](Cc2ccc(O)cc2)C(=O)N[C@@H](CC(C)C)C(=O)N[C@H](C(=O)NCC(N)=O)CSCC(=O)N[C@@H](Cc2ccccc2)C(=O)N(C)[C@@H](Cc2ccccc2)C(=O)N1C [Example 3073] ({CH2CO}-F[NMeF][NMeNle][Sar]DV[NMeF]Y[NMeE][Bta]YLCG-NH2; thioether N-13)
